From patent US20040029910A1, “Protoberberine derivatives which inhibit activity of the mitogen-activated protein kinase” (priority 2000, published 2004)

Key:
[1] = system: knock-out mutant of spm1 in Mhk1-Spm1 pathway (TZs69); experiment: Growth (cell number) of spm1 knock-out mutant; type: cell-based, Schizosaccharomyces pombe
Description: (§1) To investigate the effect of protoberberine derivatives on the growth of cells, the cells of each strain were cultured in rich medium YE^AU to exponential phase(5×10^7 cells/mL). These cells were transferred to YE^AU medium and cultured for 12 hours. Then cell number was measured every 3 hours.

[2] = system: knock-out mutant of byr2 in Ras-Byr2 pathway (SPSU); experiment: Growth (cell number) of byr2 knock-out mutant; type: cell-based, Schizosaccharomyces pombe
Description: as §1

[3] = system: knock-out mutant of wis4 (ED1292); experiment: Growth (cell number) of wis4 knock-out mutant; type: cell-based, Schizosaccharomyces pombe; details: Table 8, wis4 knock-out
Description: as §1
(§2) The knock-out mutant of win1 and wis4 was cultured and treated with 13-(4-t-butylbenzyl)berberine chloride, 13-(4-(t-butyldimethylsilyloxy)benzyl)berberine chloride or 2,3,9,10-tetrapropoxyprotoberberine iodide of the compounds 13-benzylberberine iodide, 13-(4-chloro benzyl)berberine iodide, 13-(3-bromobenzyl)berberine iodide, 13-(2,3-dichlorobenzyl)berberine chloride, 13-(2-chloro-6-fluorobenzyl)berberine chloride, 13-(4-fluoro-2-trifluoromethylbenzyl)berberine chloride, 13-(2,3,4,5,6-pentafluorobenzyl)berberine chloride, 13-(2,3,5,6-tetra fluoro-4-trifluoromethylbenzyl)berberine chloride, 13-(4-methylbenzyl)berberine chloride, 13-(2,4-dimethylbenzyl) berberine chloride, 13-(4-methyl-3-nitrobenzyl)berberine chloride, 13-(3-trifluoromethylbenzyl)berberine chloride, 13-(4-methoxybenzyl)berberine chloride, 13-(4-trifluoro methoxybenzyl)berberine chloride, 13-(4-methoxycarbonyl benzyl)berberine chloride, 13-(4-t-butylbenzyl)berberine chloride, 13-(4-1-propylbenzyl) berberine chloride, 13-(4-(t-butyldimethylsilyloxy)benzyl) berberine chloride, 13-(4-t-butylbenzyl)palmatine iodide, 13-(4-(t-butyldimethyl silyloxy)benzyl)palmatine chloride and 2,3,9,10-tetra propoxyprotoberberine iodide.

[4] = system: KGY246 cells, wild type Saccharomyces pombe; experiment: Minimum inhibitory concentration (MIC) on Schizosaccharomyces pombe; type: cell-based; details: YE^AU medium; minimal concentration at which cell number stayed constant; 10% ethanol as solvent
Description: Measurement of Minimum Inhibitory Concentration(MIC) of Protoberberine Derivatives on Schizosaccharomyces pombe
KGY246 cells, wild type Saccharomyces pombe, were cultured in rich media YE^AU (yeast extract, peptone, malt extract, dextrose, agar: pH 6.2)containing 0.75 mg/L adenine and uracil to exponential phase. To determine minimum inhibitory concentration of each protoproberberine derivative, cells in exponential phase were transferred to YE^AU medium containing variable concentrations of protoberberine derivatives and cell number was measured every 3 hour. Thereafter, the minimal concentration on which cell number was maintained constantly was determined as minimum inhibitory concentration. The minimum inhibitory concentrations of protoberberine derivatives 13-(4-t-butylbenzyl)berberine chloride, 13-(4-(t-butyldimetylsilyloxy)benzyl)berberine chloride and 2,3,9,10-tetrapropoxyprotoberberine iodide of the present invention were 20 ug/mL, 7 ug/mL and 20 ug/mL respectively. To minimize inhibition by solvent itself, 10% ethanol was used as a solvent of protoberberine derivatives. The processes of cell culture and measurement of cell number described above were repeated using 13-benzylberberine iodide, 13-(4-chlorobenzyl)berberine iodide, 13-(3-bromobenzyl)berberine iodide, 13-(2,3-dichlorobenzyl) berberine chloride, 13-(2-chloro-6-fluorobenzyl)berberine chloride, 13-(4-fluoro-2-trifluoromethylbenzyl)berberine chloride, 13-(2,3,4,5,6-pentafluorobenzyl)berberine chloride, 13-(2,3,5,6-tetrafluoro-4-trifluoromethylbenzyl) berberine chloride, 13-(4-methylbenzyl)berberine chloride, 13-(2,4-dimethylbenzyl)berberine chloride, 13-(4-methyl-3-nitrobenzyl)berberine chloride, 13-(3-trifluoromethyl benzyl)berberine chloride, 13-(4-methoxybenzyl)berberine chloride, 13-(4-trifluoromethoxybenzyl)berberine chloride, 13-(4-methoxycarbonylbenzyl)berberine chloride, 13-(4-i-propylbenzyl)berberine chloride. These compounds also had the minimum concentration of inhibition at the concentration of 18-22 ug/mL.

[5] = system: knock-out mutant of spc1 (KS1366); experiment: Growth (cell number) of spc1 knock-out mutant; type: cell-based, Schizosaccharomyces pombe; details: for inhibition of the knock-out mutant of spc1 (in words): table 6
Description: To investigate the effect of protoberberine derivatives on the growth of cells, the cells of each strain were cultured in rich medium YE^AU to exponential phase(5×10^7 cells/mL). […] Then cell number was measured every 3 hours.

[6] = system: knock-out mutant of wis1 (JM544); experiment: Growth (cell number) of wis1 knock-out mutant; type: cell-based, Schizosaccharomyces pombe; details: for inhibition of the activity of Wis1 kinase, concluded from effects on knock-out mutants: conclusion from growth of knock-out mutants; for inhibition of the knock-out mutant of wis1 (in words): table 5
Description: To investigate the effect of protoberberine derivatives on the growth of cells, the cells of each strain were cultured in rich medium YE^AU to exponential phase(5×10^7 cells/mL). […]

[7] = system: knock-out mutant of win1 (ED1388); experiment: Growth (cell number) of win1 knock-out mutant; type: cell-based, Schizosaccharomyces pombe; details: Table 7, win1 knock-out
Description: as §1, §2

[8] = Table 4, spm1 knock-out, time 12, miconazole 3 ug/mL
[9] = Table 4, spm1 knock-out, time 15, miconazole 3 ug/mL
[10] = Table 4, spm1 knock-out, time 18, miconazole 3 ug/mL
[11] = Table 4, spm1 knock-out, time 21, miconazole 3 ug/mL
[12] = Table 4, spm1 knock-out, time 24, miconazole 3 ug/mL
[13] = Table 3, byr2 knock-out, time 12, miconazole 3 ug/mL
[14] = Table 3, byr2 knock-out, time 15, miconazole 3 ug/mL
[15] = Table 3, byr2 knock-out, time 18, miconazole 3 ug/mL
[16] = Table 3, byr2 knock-out, time 21, miconazole 3 ug/mL
[17] = Table 3, byr2 knock-out, time 24, miconazole 3 ug/mL
[18] = Table 6, spc1 knock-out, time 15, miconazole 3 ug/mL
[19] = Table 6, spc1 knock-out, time 18, miconazole 3 ug/mL
[20] = Table 6, spc1 knock-out, time 21, miconazole 3 ug/mL
[21] = Table 6, spc1 knock-out, time 24, miconazole 3 ug/mL
[22] = Table 5, wis1 knock-out, time 12, miconazole 3 ug/mL
[23] = Table 5, wis1 knock-out, time 15, miconazole 3 ug/mL
[24] = Table 5, wis1 knock-out, time 18, miconazole 3 ug/mL
[25] = Table 5, wis1 knock-out, time 21, miconazole 3 ug/mL
[26] = Table 5, wis1 knock-out, time 24, miconazole 3 ug/mL

SMILES	cell number ([3]; time 13)	cell number ([3]; time 16)	cell number ([3]; time 19)	cell number ([3]; time 22)	cell number ([3]; time 25)	minimum inhibitory concentration [4] [µg/mL]	inhibition of the knock-out mutant of spc1 (in words) [5]	inhibition of the activity of Wis1 kinase, concluded from effects on knock-out mutants [6]	inhibition of the knock-out mutant of wis1 (in words) [6]	cell number ([7]; time 13)	cell number ([7]; time 16)	cell number ([7]; time 19)	cell number ([7]; time 22)	cell number ([7]; time 25)	cell number [1, 8]	cell number [1, 9]	cell number [1, 10]	cell number [1, 11]	cell number [1, 12]	cell number [2, 13]	other results
COc1ccc2c(Cc3ccc(O[Si](C)(C)C(C)(C)C)cc3)c3[n+](cc2c1OC)CCc1cc2c(cc1-3)OCO2.[Cl-] [13-(4-(t-butyldimethylsilyloxy)benzyl)berberine chloride]	37	52	25	36	23	7	not inhibited at all	inhibit	not inhibited	31	16	16	26	33	–	–	–	–	–	–	cell number ([1]; Table 2, Spm1 knock-out, time 14): 55; cell number ([1]; Table 2, Spm1 knock-out, time 17): 94; cell number ([1]; Table 2, Spm1 knock-out, time 20): 266; cell number ([1]; Table 2, Spm1 knock-out, time 23): 450; cell number ([2]; Table 2, byr2 knock-out, time 14): 34; cell number ([2]; Table 2, byr2 knock-out, time 17): 72; cell number ([2]; Table 2, byr2 knock-out, time 20): 156; cell number ([2]; Table 2, byr2 knock-out, time 23): 292; cell number ([5]; Table 2, spc1 knock-out, time 14): 57; cell number ([5]; Table 2, spc1 knock-out, time 17): 90; cell number ([5]; Table 2, spc1 knock-out, time 20): 173; cell number ([5]; Table 2, spc1 knock-out, time 23): 210; cell number ([6]; Table 2, wis1 knock-out, time 14): 257; cell number ([6]; Table 2, wis1 knock-out, time 17): 665; cell number ([6]; Table 2, wis1 knock-out, time 20): 1355; cell number ([6]; Table 2, wis1 knock-out, time 23): 3100
COc1ccc2c(Cc3ccc(C(C)(C)C)cc3)c3[n+](cc2c1OC)CCc1cc2c(cc1-3)OCO2.[Cl-] [13-(4-t-butylbenzyl)berberine chloride]	24	45	36	23	19	20	partially inhibited	inhibit	not inhibited	28	26	17	37	13	89	113	131	118	125	156	cell number [2, 14]: 150; cell number [2, 15]: 147; cell number [2, 16]: 136; cell number [2, 17]: 128; cell number [5, 18]: 299; cell number [5, 19]: 488; cell number [5, 20]: 874; cell number [5, 21]: 1083; cell number [6, 22]: 154; cell number [6, 23]: 319; cell number [6, 24]: 538; cell number [6, 25]: 1265; cell number [6, 26]: 1788
CCCOc1cc2c(cc1OCCC)-c1cc3ccc(OCCC)c(OCCC)c3c[n+]1CC2.[I-] [2,3,9,10-tetrapropoxyprotoberberine iodide]	96	113	265	645	1250	20	completely inhibited	inhibit	not inhibited	102	210	423	750	1575	117	4	7	165	228	220	cell number [2, 14]: 207; cell number [2, 15]: 185; cell number [2, 16]: 167; cell number [2, 17]: 155; cell number ([5]; Table 6, spc1 knock-out, time 12, miconazole 3 ug/mL): 201; cell number [5, 18]: 382; cell number [5, 19]: 676; cell number [5, 20]: 1232; cell number [5, 21]: 1634; inhibition of the activity of Spc1 kinase, concluded from effects on knock-out mutants ([5]; conclusion from growth of knock-out mutants): inhibit; cell number [6, 22]: 164; cell number [6, 23]: 325; cell number [6, 24]: 502; cell number [6, 25]: 1041; cell number [6, 26]: 1574
